{"source": "patent US20230257480A1", "about": "“ENHANCING BLOOD-BRAIN BARRIER DRUG TRANSPORT BY TARGETING ENDOGENOUS REGULATORS” (THE BOARD OF TRUSTEES OF THE LELAND STANFORD JUNIOR …, priority 2019, published 2023)", "system": "aged brain endothelial cells", "assay": "scRNA-seq of aged brain endothelial cells after pharmacologic ALPL inhibition", "type": "in vivo, mice", "excerpt": "FIG. 21A includes an image and histogram showing holo-transferrin uptake in ALPL+/− cortical vasculature (n=6, paired two-sided t-test). FIG. 21B is an MA plot of differentially expressed genes (FDR<0.05) from aged mice after administration of ALPL inhibitor and vehicle (7,036 capillary cells, n=4 mice pooled per group, MAST with Bonferroni correction). FIG. 21C includes violin plots showing transferrin receptor (Tfrc) expression across vessel segments, following the paradigm in FIG. 21B (1,171 arterial, 7,036 capillary, and 430 venous cells, MAST with Bonferroni correction).\nCell lysis, first-strand synthesis and cDNA synthesis was performed using the Smart-seq-2 protocol as described previouslyl39-141 in 384-well format, with some modifications. Briefly, brain endothelial cells (CD31+/CD45−) were sorted using SH800S (Sony) sorters on the highest purity setting (‘Single cell’). Plasma-647 fluorescence was recorded for each cell and corresponding sorted well. cDNA synthesis was performed using the Smart-seq2 protocol140-142. After cDNA amplification (23 cycles), concentrations were determined via the PicoGreen quantitation assay. Cells passing quality control were selected through custom scripts and cDNA concentrations normalized to ˜0.2 ng/μL using the TPPLabtech Mosquito HTS and Mantis (Formulatrix) robotic platforms. Libraries were prepared and pooled using the Nextera XT kits (Illumina), following the manufacturer's instructions. Libraries were then sequenced on the Nextseq or Novaseq (Illumina) using 2×75 bp paired-end reads and 2×8 bp index reads with a 200-cycle kit (Illumina, 20012861). Samples were sequenced at an average of 1.5M reads per cell. Raw sequencing files were demultiplexed with bcl2fastq, reads were aligned using STAR, and gene counts made using HTSEQ version 0.6.1p1. Downstream analysis was performed as previously described58, and plasma fluorescence of each cell correlated (Spearman) with gene expression and zonation59.\nMice were treated with six doses of ALPL inhibitor (613810, Millipore Sigma; 2,5-Dimethoxy-N-(quinolin-3-yl)benzenesulfonamide, Tissue-Nonspecific Alkaline Phosphatase Inhibitor, MLS-0038949; C17H16N2O4S; CAS #496014-13-2) or ‘Vehicle’ control over three days, injected intraperitoneally twice per day (8.75 mg/kg). ‘Vehicle’ treatments consisted of phosphate-buffered saline (PBS) with a matching concentration of DMSO (less than 4% v/v). After the sixth treatment, mice were injected intravenously with 150 μL of Atto 647N-labeled plasma (as above), human holo-transferrin (T4132, Millipore Sigma, 40 mg/kg), transferrin receptor antibody (BE0175, BioXcell, 20 mg/kg), or 3-kDa dextran-FITC (10 mg/kg, Thermo Fisher). Plasma, human holo-transferrin, and transferrin receptor antibody were infused 20 h before sacrifice, while 3-kDa dextran-FITC was given 2 h before sacrifice, as previously described143. After extensive perfusion, CNS cells were isolated as described above. Cell pellets were additionally incubated in Red Blood Cell Lysis Buffer (Millipore Sigma, R7757) for 2 minutes to ensure high CNS cell purity. Brain endothelial cells were distinguished by CD3 I+/CD45− staining and parenchymal cells by CD31−/CD45− staining. […]"}
{"molecule": "COc1ccc(OC)c(S(=O)(=O)Nc2cnc3ccccc3c2)c1", "note": "[ALPL inhibitor, 2,5-Dimethoxy-N-(quinolin-3-yl)benzenesulfonamide]", "values": [{"measurement": "TFRC expression on the aged BBB", "setting": "aged BBB, upon ALPL inhibition", "result": "strongly upregulated"}, {"measurement": "ferroportin expression on the aged BBB", "setting": "aged BBB, upon ALPL inhibition", "result": "strongly upregulated"}, {"measurement": "transferrin receptor expression increase in capillaries", "setting": "aged mice, capillary cells, after ALPL inhibition", "result": "~70", "unit": "%"}, {"measurement": "transferrin receptor expression increase in venous cells", "setting": "aged mice, venous cells, after ALPL inhibition", "result": "~89", "unit": "%"}, {"measurement": "pct, ALPL inh., Fcgrt", "setting": "receptor gene Fcgrt, ALPL inhibitor-treated group", "result": 0.849}, {"measurement": "% increase, Fcgrt", "setting": "receptor gene Fcgrt, aged BBB, ALPL inhibition vs control", "result": 24.2, "unit": "%"}, {"measurement": "pct, ALPL inh., Lpar6", "setting": "receptor gene Lpar6, ALPL inhibitor-treated group", "result": 0.446}, {"measurement": "% increase, Lpar6", "setting": "receptor gene Lpar6, aged BBB, ALPL inhibition vs control", "result": 37.0, "unit": "%"}, {"measurement": "pct, ALPL inh., Scarb1", "setting": "receptor gene Scarb1, ALPL inhibitor-treated group", "result": 0.45}, {"measurement": "% increase, Scarb1", "setting": "receptor gene Scarb1, aged BBB, ALPL inhibition vs control", "result": 11.1, "unit": "%"}, {"measurement": "pct, ALPL inh., Tfrc", "setting": "receptor gene Tfrc, ALPL inhibitor-treated group", "result": 0.723}, {"measurement": "% increase, Tfrc", "setting": "receptor gene Tfrc, aged BBB, ALPL inhibition vs control", "result": 70.1, "unit": "%"}, {"measurement": "pct, ALPL inh., Slc6a6", "setting": "transporter gene Slc6a6, ALPL inhibitor-treated group", "result": 0.99}, {"measurement": "% increase, Slc6a6", "setting": "transporter gene Slc6a6, aged BBB, ALPL inhibition vs control", "result": 24.9, "unit": "%"}, {"measurement": "pct, ALPL inh., Slc7a1", "setting": "transporter gene Slc7a1, ALPL inhibitor-treated group", "result": 0.72}, {"measurement": "% increase, Slc7a1", "setting": "transporter gene Slc7a1, aged BBB, ALPL inhibition vs control", "result": 12.2, "unit": "%"}, {"measurement": "pct, ALPL inh., Slc16a2", "setting": "transporter gene Slc16a2, ALPL inhibitor-treated group", "result": 0.66}, {"measurement": "% increase, Slc16a2", "setting": "transporter gene Slc16a2, aged BBB, ALPL inhibition vs control", "result": 16.5, "unit": "%"}, {"measurement": "pct, ALPL inh., Slc16a4", "setting": "transporter gene Slc16a4, ALPL inhibitor-treated group", "result": 0.42}, {"measurement": "% increase, Slc16a4", "setting": "transporter gene Slc16a4, aged BBB, ALPL inhibition vs control", "result": 18.8, "unit": "%"}, {"measurement": "pct, ALPL inh., Slc22a8", "setting": "transporter gene Slc22a8, ALPL inhibitor-treated group", "result": 0.71}, {"measurement": "% increase, Slc22a8", "setting": "transporter gene Slc22a8, aged BBB, ALPL inhibition vs control", "result": 11.0, "unit": "%"}, {"measurement": "pct, ALPL inh., Slc25a1", "setting": "transporter gene Slc25a1, ALPL inhibitor-treated group", "result": 0.24}, {"measurement": "% increase, Slc25a1", "setting": "transporter gene Slc25a1, aged BBB, ALPL inhibition vs control", "result": 10.7, "unit": "%"}, {"measurement": "pct, ALPL inh., Slc26a10", "setting": "transporter gene Slc26a10, ALPL inhibitor-treated group", "result": 0.19}, {"measurement": "% increase, Slc26a10", "setting": "transporter gene Slc26a10, aged BBB, ALPL inhibition vs control", "result": 17.8, "unit": "%"}, {"measurement": "pct, ALPL inh., Slc39a8", "setting": "transporter gene Slc39a8, ALPL inhibitor-treated group", "result": 0.34}, {"measurement": "% increase, Slc39a8", "setting": "transporter gene Slc39a8, aged BBB, ALPL inhibition vs control", "result": 10.9, "unit": "%"}, {"measurement": "pct, ALPL inh., Slc39a10", "setting": "transporter gene Slc39a10, ALPL inhibitor-treated group", "result": 0.89}, {"measurement": "% increase, Slc39a10", "setting": "transporter gene Slc39a10, aged BBB, ALPL inhibition vs control", "result": 12.1, "unit": "%"}, {"measurement": "% increase, Slc40a1", "setting": "transporter gene Slc40a1 (ferroportin), aged BBB, ALPL inhibition vs control", "result": 35.0, "unit": "%"}, {"measurement": "pct, ALPL inh., Slc40a1", "setting": "transporter gene Slc40a1, ALPL inhibitor-treated group", "result": 0.62}, {"measurement": "pct, ALPL inh., Slco1c1", "setting": "transporter gene Slco1c1, ALPL inhibitor-treated group", "result": 0.97}, {"measurement": "% increase, Slco1c1", "setting": "transporter gene Slco1c1, aged BBB, ALPL inhibition vs control", "result": 15.7, "unit": "%"}]}
